# Reference: article PMC7352977 (Cancers, 2020)
# How the values were obtained:
# SW480 = assay: Cell proliferation assay (CCK-8), SW480; type: cell-based; details: SW480 (colon, KRAS G12V), 72 h, CCK-8, triplicate
# Method: (§1) Cells (2 × 10^3/well, 100 μL final volume per well) for HCT116 and NCI-H460, 5 × 10^3 cells/well for SW480 and NCI-H23, and 1 × 10^4 cells/well for AsPC-1 cell lines were used in this assay (Table 4). All cells were allowed to attach for 24 h after plating, and the cells were treated with fresh media the next day. […] After the 72 h incubation, cell counting kit-8 (CCK-8) solution (10 μL/well) was added, and cells were incubated for a further 4 h at 37 °C CO2 incubator. The optical density (OD) of each well at 450 nm was measured by using the Microplate reader (BioTek, USA). Experiments were performed at least three times with representative data presented.
# AsPC-1 = assay: Cell proliferation assay (CCK-8), AsPC-1; type: cell-based, human; details: AsPC-1 (pancreas, KRAS G12D), 72 h, CCK-8, triplicate
# Method: as §1
# [1] = system: AsPC-1 pancreatic cancer cells (xenograft); assay: Tumor xenograft model, AsPC-1, nude mice; type: in vivo; details: abdominal cavity
# Method: Five were deployed per group.
# The cells used in the cancer animal model used human-specific pancreatic cancer cell liquor AsPC-1, which was defrosted more than 2 weeks before the animal model was created to obtain stable cell alcohol conditions, and were incubated three times. The growth medium used for cell culture was used by adding 10% fetal bovine serum and 1% penicillin/streptomycin to the RPMI-1640 medium used for AsPC-1 cell lines. On the day of the production of the cancer animal model, AsPC-1 cell line was removed from the cell culture flask by 0.25% Trypsin/EDTA and washed twice with PBS. The cell line was finally harried to HBSS + matrigel (1:1). Since the number of cells to be used in the experiment was 1 × 10^6/head, the finally disheveled cell concentration was 1 × 10^7/mL. It was stored in ice until the test was used. In the case of cell transplantation, 100 μL was transplanted. The separation was performed when the average volume of the tumor had grown to more than 100 mm^3. A random separation of groups was conducted to ensure that the average tumor volume was equal in the day of separation, and the separation of groups was carried out into a total of three groups.
# KRAS wild-type = assay: [α-32P] GTP binding assay, KRAS wild-type; type: biochemical, human; details: H-REV107 peptide, 30 °C
# Method: His-tagged human KRAS wild-type and mutants (G12V, G12D, G12C, G13D, and Q61H) and H-REV107 were transformed into Escherichia coli BL21 (DE3) cells. Each individual colony was inoculated into […] of Luria-Bertani (LB) medium enriched with 10 μg/mL kanamycin, after which the bacteria were grown for 16 h at 37 °C. These cells were then added to 2 L of LB containing antibiotics and grown at 37 °C until the OD600 reached 0.5–0.6. The expression of the proteins was induced by 0.5 mM isopropyl-thio-β-D-1-thiogalactopyranoside (IPTG) at 25 °C, after which the bacterial cells were harvested by centrifugation at 3830 × g for 25 min at 4 °C, then disrupted by sonication in lysis buffer (50 mM HEPES (pH 7.5), 100 mM NaCl, and 2 mM MgCl2). The supernatant was subsequently incubated with Ni-NTA resin (BioRad) for 10 min. After washing, the bound protein was eluted from the beads with elution buffer (50 mM HEPES (pH 7.5), 500 mM NaCl, 2 mM MgCl2, and 400 mM imidazole). The eluted protein was further purified by fast protein liquid chromatography (FPLC) using a Superdex 200 10/300 GL column equilibrated with 50 mM HEPES (pH 7.5), 100 mM NaCl, and 2 mM MgCl2. The purity and identity of the proteins were determined by 15% SDS-PAGE. […]
# In addition, the protein complex was incubated with [α-^32P] […] Protein-bound radioactive nucleotide was quantified by liquid scintillation counting.
# HCT116 = assay: Cell proliferation assay (CCK-8), HCT116; type: cell-based; details: HCT116 (colon, KRAS G13D), 72 h, CCK-8, triplicate
# Method: as §1
# [2] = system: MEK/ERK signaling pathway; assay: Western blot analysis of MEK/ERK signaling, SW480; type: cell-based; details: SW480, 24 and 48 h
# Method: (§2) Cells were plated in a 100 mm cell culture dish and incubated under standard conditions (37 °C under a humidified atmosphere containing 5% CO2) in RPMI-1640 media with 10% fetal bovine serum, 100 μ/mL penicillin, and 100 μ/mL streptomycin (Welgene, Korea). […] After treatment of 24, 48, and 72 h, the cells were lysed using protein extraction solution PRO-PREPTM (iNtRON Biotechnology, Korea) containing a protease inhibitor cocktail for 30 min at 4 °C. After this, the cells were centrifuged at 15,115 x g for 30 min. Protein content in the supernatant was measured with Bradford protein assay using bovine serum albumin (BSA). The protein was separated by 10% SDS-PAGE and transferred onto an immobilon-P membrane (Millipore, USA). Membrane was blocked in ProNA Protein-free 5X general or phospho-block solution (TransLab, Korea) for 1 h at room temperature. The membrane was incubated with primary antibodies against phosphorylated (p)-MEK1/2 (Ser217/221), total (t)-MEK1/2, p-ERK1/2 (Thr202/Tyr204), and t-ERK1/2 (Cell Signaling Technology, USA) at 4 °C overnight, washed with 1X PBS containing 0.1% Tween (PBST) three times, and incubated with anti-IgG secondary antibodies (Santa Cruz Biotechnology, USA) in PBST for 1 h. The transferred protein band was visualized with EzWestLumi plus (ATTO corporation, Japan). Probing for ß-acitn was used as a loading control.
# NCI-H23 = assay: Cell proliferation assay (CCK-8), NCI-H23; type: cell-based; details: NCI-H23 (lung, KRAS G12C), 72 h, CCK-8, triplicate
# Method: as §1
# A549 = assay: MTT, wild-type KRAS A549 cell line; type: cell-based; details: A549, compared with other tumor cell lines
# Solubility in water = type: physicochemical
# NCI-H460 = assay: Cell proliferation assay (CCK-8), NCI-H460; type: cell-based; details: NCI-H460 (lung, KRAS Q61H), 72 h, CCK-8, triplicate
# Method: as §1
# [3] = system: MEK/ERK signaling pathway; assay: Western blot analysis of MEK/ERK signaling, AsPC-1; type: cell-based, human; details: AsPC-1, 24 and 48 h
# Method: as §2
sequence,measurement,setting,value
LYDVAGSDKY [H-REV107 peptide],GI50,SW480,358 µM
same,GI50,AsPC-1,417 µM
same,"growth rate of tumors, high concentration group (in words)",[1]; 200 mg/kg,lowest growth rate
same,growth rate of tumors compared to Vehicle (in words),[1]; H-REV107 peptide experimental group,lower growth rate of tumors
same,tumor volume compared to Vehicle (in words),"[1]; all doses (50 and 200 mg/kg), day 3 to day 32 after inoculation",decrease
same,"GTP binding activity to KRAS wild-type, decreased to",KRAS wild-type,12%
same,GI50 (in words),HCT116,millimolar ranges
same,expression level of total MEK/ERK protein (in words),[2],little effect
same,phosphorylation levels of MEK/ERK (in words),[2],decrease the phosphorylation levels of MEK/ERK
same,GI50 (in words),NCI-H23,millimolar ranges
same,effect on proliferation of wild-type KRAS A549 cell line (in words),A549,higher concentration state of H-REV107 peptide had an effect on the proliferation
same,solubility in water (in words),Solubility in water,highly soluble
same,GI50 (in words),NCI-H460,millimolar ranges
same,expression level of total MEK/ERK protein (in words),[3],little effect
same,"phosphorylation levels of MEK/ERK, tendency to decrease (in words)",[3],little
